Experiments:
[1] = system: DNA Seq6 (DNA, single strand) TGAAGGAAGGT; experiment: ITC; conditions: 100 mM NaCl; 30 mM MES pH 6.1, 5% DMSO, 25 °C
[2] = system: RNA Seq6 (RNA, single strand) UGAAGGAAGGU; experiment: fluorescence polarization; conditions: 100 mM NaCl; 20 mM HEPES, 25 °C; 0.5 μM SMN-C2
[3] = system: RNA Seq7 (RNA, single strand) UUAAGGAAGGU; experiment: fluorescence polarization; conditions: 100 mM NaCl; 20 mM HEPES, 25 °C; 0.5 μM SMN-C2
[4] = system: RNA Seq12 (RNA, single strand) UGAAAGAAGGU; experiment: fluorescence polarization; conditions: 100 mM NaCl; 20 mM HEPES, 25 °C; 0.5 μM SMN-C2
[5] = system: RNA Seq17 (RNA, single strand) UGAAGGAAGAU; experiment: fluorescence polarization; conditions: 100 mM NaCl; 20 mM HEPES, 25 °C; 0.5 μM SMN-C2
[6] = system: DNA Seq7 (DNA, single strand) TTAAGGAAGGT; experiment: fluorescence polarization; conditions: 100 mM NaCl, 1 mM MgCl2; 20 mM HEPES, 25 °C; 0.5 μM SMN-C2
[7] = system: DNA Seq8 (DNA, single strand) TGAAGGAAGTT; experiment: fluorescence polarization; conditions: 100 mM NaCl, 1 mM MgCl2; 20 mM HEPES, 25 °C; 0.5 μM SMN-C2
[8] = system: DNA Seq14 (DNA, single strand) AGAAGGTAGGT; experiment: fluorescence polarization; conditions: 100 mM NaCl, 1 mM MgCl2; 20 mM HEPES, 25 °C; 0.5 μM SMN-C2
[9] = system: DNA Seq15 (DNA, single strand) TGAAGGATGGT; experiment: fluorescence polarization; conditions: 100 mM NaCl, 1 mM MgCl2; 20 mM HEPES, 25 °C; 0.5 μM SMN-C2
[10] = system: DNA Seq16 (DNA, single strand) TGAAGGAAAGT; experiment: fluorescence polarization; conditions: 100 mM NaCl, 1 mM MgCl2; 20 mM HEPES, 25 °C; 0.5 μM SMN-C2
[11] = system: DNA Seq17 (DNA, single strand) TGAAGGAAGAT; experiment: fluorescence polarization; conditions: 100 mM NaCl, 1 mM MgCl2; 20 mM HEPES, 25 °C; 0.5 μM SMN-C2
[12] = system: DNA S1 (DNA, single strand) AAAAGAAGGAAGGTGCTC; experiment: fluorescence polarization; conditions: 100 mM NaCl, 1 mM MgCl2; 20 mM HEPES, 25 °C; 0.5 μM SMN-C2
[13] = system: S2 (DNA, single strand) AAAAGAAGGAAGGAGCAC; experiment: fluorescence polarization; conditions: 100 mM NaCl, 1 mM MgCl2; 20 mM HEPES, 25 °C, 0.5 μM compound
[14] = system: S3 (DNA, single strand) AAAAGAAGGAAGGTGATA; experiment: fluorescence polarization; conditions: 100 mM NaCl, 1 mM MgCl2; 20 mM HEPES, 25 °C, 0.5 μM compound
[15] = system: S5 (DNA, single strand) AAAAGAAUGAAGGTGCTC; experiment: fluorescence polarization; conditions: 100 mM NaCl, 1 mM MgCl2; 20 mM HEPES, 25 °C, 0.5 μM compound
[16] = system: S6 (DNA, single strand) AAAAGAAGGAGGGTGCTC; experiment: fluorescence polarization; conditions: 100 mM NaCl, 1 mM MgCl2; 20 mM HEPES, 25 °C, 0.5 μM compound
[17] = system: S10 (DNA, single strand) AAAAGTAGGAAGGTGCTC; experiment: fluorescence polarization; conditions: 100 mM NaCl, 1 mM MgCl2; 20 mM HEPES, 25 °C, 0.5 μM compound
[18] = system: S11 (DNA, single strand) AAAAGATGGAAGGTGCTC; experiment: fluorescence polarization; conditions: 100 mM NaCl, 1 mM MgCl2; 20 mM HEPES, 25 °C, 0.5 μM compound
[19] = system: S14 (DNA, single strand) AAAAGAAGGATGGTGCTC; experiment: fluorescence polarization; conditions: 100 mM NaCl, 1 mM MgCl2; 20 mM HEPES, 25 °C, 0.5 μM compound
[20] = system: S17 (DNA, single strand) AAAGGAAGGAAGGTGCTC; experiment: fluorescence polarization; conditions: 100 mM NaCl, 1 mM MgCl2; 20 mM HEPES, 25 °C, 0.5 μM compound
[21] = system: S22 (DNA, single strand) AAAAGAAAGAAGGTGCTC; experiment: fluorescence polarization; conditions: 100 mM NaCl, 1 mM MgCl2; 20 mM HEPES, 25 °C, 0.5 μM compound
[22] = system: S24 (DNA, single strand) AAAAGAAGGAAAGTGCTC; experiment: fluorescence polarization; conditions: 100 mM NaCl, 1 mM MgCl2; 20 mM HEPES, 25 °C, 0.5 μM compound
[23] = system: DNA Seq20 (DNA, hairpin) TGAAGGAAGGTTTCGACCTTCCTTCA; experiment: fluorescence polarization; conditions: 100 mM NaCl, 1 mM MgCl2; 20 mM HEPES, 25 °C, 0.5 μM compound
[24] = system: DNA Seq21 (DNA, hairpin) GCGCCGACTGAAGGAAGGAGTCGGCGC; experiment: fluorescence polarization; conditions: 100 mM NaCl, 1 mM MgCl2; 20 mM HEPES, 25 °C, 0.5 μM compound
[25] = system: RNA Seq22 (RNA, other) GUGCCAGUUCGCUGGCACUGAAGGAAGGU; experiment: fluorescence polarization; conditions: 100 mM NaCl; 20 mM HEPES, 25 °C, 0.5 μM compound

CCN1CCN(c2ccc3cc(-c4cn5cc(C)nc(C)c5n4)c(=O)oc3c2)C[C@@H]1C showed a Kd [1] of 4.8 µM, a Kd [2] of 17.5 ± 2.2 µM and a Kd [3] of 42.3 ± 13.3 µM. For the same compound, the Kd [4] was greater than 100 µM, the Kd [5] was 48.2 ± 9.0 µM and the Kd [6] was greater than 100 µM. The Kd [7] was 14.7 ± 0.7 µM, the Kd [8] was greater than 100 µM and the Kd [9] was 41.1 ± 4.4 µM. For the same compound, the Kd [10] was 27.4 ± 6.0 µM, the Kd [11] was 56.4 ± 10.4 µM and the Kd [12] was 15.3 ± 0.6 µM. It also gave a Kd [13] of 20.2 ± 1.7 µM, a Kd [14] of 21.7 ± 2.7 µM and a Kd [15] of 42.3 ± 4.2 µM. It also gave a Kd [16] of 33.3 ± 2.3 µM, a Kd [17] of 26.4 ± 2.2 µM and a Kd [18] of 26.3 ± 1.2 µM. It also gave a Kd [19] of 19.5 ± 2.3 µM, a Kd [20] of 16.5 ± 1.1 µM and a Kd [21] of 44.7 ± 7.2 µM. The Kd [22] was 36.8 ± 11.4 µM, the Kd [23] was 52.0 ± 25.7 µM and the Kd [24] was 12.8 ± 4.7 µM. It also gave a Kd [25] of 11.0 ± 0.8 µM.

Reference: paper PMC8373063 (2021)
